Measured values as given in patent publication US20240124432A1, “HERBICIDAL COMPOUNDS” (SYNGENTA CROP PROTECTION AG, priority 2020, published 2024).

What was measured:
Format in all cases: in vivo
IPOHE [1] = test: Pre-emergence biological efficacy; conditions: Ipomoea hederacea, 312 h, evaluated after 13 days, read-out: damage to plant (100=total damage to plant; 0=no damage to plant)
How it was run: (§1)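 Damage rated on a 0–100 scale (100 = total) 13 days after spraying in glasshouse conditions of 24/18° C., 15 h light, 50% humidity. Spray applied one day after sowing, using aqueous dilution in 0.2% Genapol XO80 of a 50 g/l IF50 solvent-emulsifier formulation, at the desired final dose.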

AMAPA [2] = test: Pre-emergence biological efficacy; conditions: Amaranthus palmeri, 312 h, evaluated after 13 days, read-out: damage to plant (100=total damage to plant; 0=no damage to plant)
How it was run: as §1

SETFA [3] = test: Pre-emergence biological efficacy; conditions: Setaria faberi, 312 h, evaluated after 13 days, read-out: damage to plant (100=total damage to plant; 0=no damage to plant)
How it was run: as §1

LOLPE [4] = test: Pre-emergence biological efficacy; conditions: Lolium perenne, 312 h, evaluated after 13 days, read-out: damage to plant (100=total damage to plant; 0=no damage to plant)
How it was run: as §1

EPHHL [5] = test: Pre-emergence biological efficacy; conditions: Euphorbia heterophylla, 312 h, evaluated after 13 days, read-out: damage to plant (100=total damage to plant; 0=no damage to plant)
How it was run: as §1

ECHCG [6] = test: Pre-emergence biological efficacy; conditions: Echinochloa crus-galli, 312 h, evaluated after 13 days, read-out: damage to plant (100=total damage to plant; 0=no damage to plant)
How it was run: as §1

ELEIN = test: Post-emergence biological efficacy; conditions: 312 h, evaluated after 13 days, read-out: damage to plant (100=total damage to plant; 0=no damage to plant)
How it was run: (§2)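 Damage was rated 13 days after treatment, from 0 (none) to 100 (total). Test compounds, formulated in IF50 and diluted with 0.2% Genapol XO80 to final dose, were sprayed on glasshouse plants raised for 14 days from seed.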

CHEAL = test: Post-emergence biological efficacy; conditions: Chenopodium album, 312 h, evaluated after 13 days, read-out: damage to plant (100=total damage to plant; 0=no damage to plant)
How it was run: as §2

DIGSA = test: Post-emergence biological efficacy; conditions: Digitaria sanguinalis, 312 h, evaluated after 13 days, read-out: damage to plant (100=total damage to plant; 0=no damage to plant)
How it was run: as §2

IPOHE [7] = test: Post-emergence biological efficacy; conditions: Ipomoea hederacea, 312 h, evaluated after 13 days, read-out: damage to plant (100=total damage to plant; 0=no damage to plant)
How it was run: as §2

AMAPA [8] = test: Post-emergence biological efficacy; conditions: Amaranthus palmeri, 312 h, evaluated after 13 days, read-out: damage to plant (100=total damage to plant; 0=no damage to plant)
How it was run: as §2

SETFA [9] = test: Post-emergence biological efficacy; conditions: Setaria faberi, 312 h, evaluated after 13 days, read-out: damage to plant (100=total damage to plant; 0=no damage to plant)
How it was run: as §2

LOLPE [10] = test: Post-emergence biological efficacy; conditions: Lolium perenne, 312 h, evaluated after 13 days, read-out: damage to plant (100=total damage to plant; 0=no damage to plant)
How it was run: as §2

EPHHL [11] = test: Post-emergence biological efficacy; conditions: Euphorbia heterophylla, 312 h, evaluated after 13 days, read-out: damage to plant (100=total damage to plant; 0=no damage to plant)
How it was run: as §2

ECHCG [12] = test: Post-emergence biological efficacy; conditions: Echinochloa crus-galli, 312 h, evaluated after 13 days, read-out: damage to plant (100=total damage to plant; 0=no damage to plant)
How it was run: as §2

SMILES | pest or weed control at 250 g/ha (IPOHE [1]) [%] | pest or weed control at 250 g/ha (AMAPA [2]) [%] | pest or weed control at 250 g/ha (SETFA [3]) [%] | pest or weed control at 250 g/ha (LOLPE [4]) [%] | pest or weed control at 250 g/ha (EPHHL [5]) [%] | pest or weed control at 250 g/ha (ECHCG [6]) [%] | pest or weed control at 250 g/ha (ELEIN) [%] | pest or weed control at 250 g/ha (CHEAL) [%] | pest or weed control at 250 g/ha (DIGSA) [%] | pest or weed control at 250 g/ha (IPOHE [7]) [%] | pest or weed control at 250 g/ha (AMAPA [8]) [%] | pest or weed control at 250 g/ha (SETFA [9]) [%] | pest or weed control at 250 g/ha (LOLPE [10]) [%] | pest or weed control at 250 g/ha (EPHHL [11]) [%] | pest or weed control at 250 g/ha (ECHCG [12]) [%]
CCOC(=O)C1(C)CC(c2cc(-c3cnc4ccc(C(F)(F)F)cc4n3)c(F)cc2Cl)=NO1 (stereo not drawn) [Compound 1-763, Ethyl 3-[2-chloro-4-fluoro-5-[7-(trifluoromethyl)quinoxalin-2-yl]phenyl]-5-methyl-4H-isoxazole-5-carboxylate] | 0 | 0 | 0 | 0 | 0 | 0 | 0 | 20 | 0 | 10 | 20 | 0 | 0 | 20 | 0
CCOC(=O)C1(C)CC(c2cc(-c3ncc(C#N)cc3Cl)c(F)cc2Cl)=NO1 (stereo not drawn) [Compound 1-607, Ethyl 3-[2-chloro-5-(3-chloro-5-cyano-2-pyridyl)-4-fluoro-phenyl]-5-methyl-4H-isoxazole-5-carboxylate] | 30 | 100 | 10 | 20 | 50 | 70 | 60 | 100 | 70 | 100 | 100 | 80 | 70 | 100 | 40
CCOC(=O)C1(C)CC(c2cc(-c3cc(C(F)(F)F)cc(Cl)n3)c(F)cc2Cl)=NO1 (stereo not drawn) [Compound 1-67, Ethyl 3-[2-chloro-5-[6-chloro-4-(trifluoromethyl)-2-pyridyl]-4-fluoro-phenyl]-5-methyl-4H-isoxazole-5-carboxylate] | 0 | 10 | 0 | 0 | 0 | 0 | 0 | 10 | 10 | 30 | 20 | 20 | 0 | 40 | 0
CCOC(=O)C1(C)CC(c2cc(-c3cnc(F)c(F)c3)c(F)cc2Cl)=NO1 (stereo not drawn) [Compound 1-391, Ethyl 3-[2-chloro-5-(5,6-difluoro-3-pyridyl)-4-fluoro-phenyl]-5-methyl-4H-isoxazole-5-carboxylate] | 0 | 0 | 0 | 0 | 0 | 0 | 40 | 50 | 50 | 40 | 60 | 40 | 10 | 50 | 40
CCOC(=O)C1(C)CC(c2cc(-c3cnc4c(c3)OC(F)(F)O4)ccc2C#N)=NO1 (stereo not drawn) [Compound 2-451, Ethyl 3-[2-cyano-5-(2,2-difluoro-[1,3]dioxolo[4,5-b]pyridin-6-yl)phenyl]-5-methyl-4H-isoxazole-5-carboxylate] | 0 | 90 | 70 | 40 | 0 | 60 | 70 | 50 | 50 | 30 | 40 | 40 | 20 | 70 | 30
CCOC(=O)C1(C)CC(c2cc(-c3ncc(C(F)(F)F)cc3Br)c(F)cc2Cl)=NO1 (stereo not drawn) [Compound 1-571, Ethyl 3-[5-[3-bromo-5-(trifluoromethyl)-2-pyridyl]-2-chloro-4-fluoro-phenyl]-5-methyl-4H-isoxazole-5-carboxylate] | 0 | 100 | 10 | 70 | 0 | 10 | 90 | 100 | 60 | 70 | 100 | 90 | 90 | 100 | 30
CCOC(=O)C1(C)CC(c2cc(-c3cncc(OC)c3)c(F)cc2Cl)=NO1 (stereo not drawn) [Compound 1-379, Ethyl 3-[2-chloro-4-fluoro-5-(5-methoxy-3-pyridyl)-phenyl]-5-methyl-4H-isoxazole-5-carboxylate] | 0 | 0 | 0 | 0 | 0 | 0 | 40 | 50 | 60 | 80 | 100 | 40 | 10 | 50 | 40
CCOC(=O)C1(C)CC(c2cc(-c3ncc([N+](=O)[O-])cc3Cl)c(F)cc2Cl)=NO1 (stereo not drawn) [Compound 1-355, Ethyl 3-[2-chloro-5-(3-chloro-5-nitro-2-pyridyl)-4-fluoro-phenyl]-5-methyl-4H-isoxazole-5-carboxylate] | 20 | 0 | 10 | 20 | 20 | 10 | 50 | 60 | 50 | 70 | 100 | 40 | 50 | 80 | 50
CCOC(=O)C1(C)CC(c2cc(-c3ccccn3)c(F)cc2Cl)=NO1 (stereo not drawn) [Compound 1-139, Ethyl 3-[2-chloro-4-fluoro-5-(2-pyridyl)phenyl]-5-methyl-4H-isoxazole-5-carboxylate] | 0 | 0 | 0 | 0 | 0 | 0 | 0 | 0 | 0 | 20 | 0 | 10 | 0 | 10 | 0
CCOC(=O)C1(C)CC(c2cc(-c3ccnc(F)c3)c(F)cc2Cl)=NO1 (stereo not drawn) [Compound 1-295, Ethyl 3-[2-chloro-4-fluoro-5-(2-fluoro-4-pyridyl)phenyl]-5-methyl-4H-isoxazole-5-carboxylate] | 0 | 0 | 0 | 0 | 0 | 0 | 10 | 70 | 10 | 50 | 90 | 10 | 0 | 50 | 10
